Patent US7968713B2, “Method of synthesizing quinoxaline derivative by microwave irradiation” (Nihon University, priority 2005, dated 2011)

Columns and labels:
HepG2 cells = test: Hypoxic selective cytotoxicity test with respect to HepG2 cells (colony forming ratio); type: cell-based, human; details: 20 μM exposed for six hours, cultivated for seven days; for Activity (Surviving fraction) (%) hypoxia: hypoxic state (hypoxia); for Activity (Surviving fraction) (%) noroxia: usual oxygen state (noroxia)
Method: (Hypoxic Selective Cytotoxicity Test with Respect to HepG2 Cells)
A cytotoxicity reinforcing effect on a hypoxic condition was tested using HepG2 cells which were human liver cancer cells. In a usual oxygen state (noroxia) and a hypoxic state (hypoxia), 20 μM of each quinoxaline 1,4-dioxide derivative shown in Table 1 (Compounds 1 to 8 including R1 to R6 shown in Table 1 in the above general formula (3)) was exposed for six hours, and cultivated for seven days, and then colony forming ratios were compared. It is to be noted that in Table 1, “Ph-NO2” is a group in which a nitro group is introduced into a para position of a benzoyl group.

Row | SMILES | melting point | Activity (Surviving fraction) (%) hypoxia (HepG2 cells) | Activity (Surviving fraction) (%) noroxia (HepG2 cells)
1 | Cc1c(C(=O)c2ccc([N+](=O)[O-])cc2)[n+]([O-])c2cc(Cl)c(Cl)cc2[n+]1[O-] [Compound 7, 6,7-dichloro-3-methyl-2-(4′-nitrobenzoyl)-quinoxaline 1,4-dioxide] | 215 to 217 °C | 6% | 73%
2 | O=C(c1ccccc1)c1c(-c2ccccc2)[n+]([O-])c2cc(F)c(F)cc2[n+]1[O-] [Example 2, 2-benzoyl-6,7-difluoro-3-phenylquinoxaline 1,4-dioxide] | 249 to 251 °C | – | –

The next lines start with results.

Row | melting point | SMILES | Activity (Surviving fraction) (%) hypoxia (HepG2 cells) | Activity (Surviving fraction) (%) noroxia (HepG2 cells)
3 | 286 °C (dec.) | COc1cc2c(cc1OC)[n+]([O-])c(-c1ccccc1)c(C(=O)c1ccccc1)[n+]2[O-] [Example 3, 2-benzoyl-6,7-dimethoxy-3-phenylquinoxaline 1,4-dioxide] | – | –
4 | 232 to 233 °C | Cc1c(C(=O)c2ccc([N+](=O)[O-])cc2)[n+]([O-])c2cc(F)c(F)cc2[n+]1[O-] [Compound 8, 6,7-difluoro-3-methyl-2-(41-nitrobenzoyl)-quinoxaline 1,4-dioxide] | 1% | 44%
5 | 254 °C | COc1cc2c(cc1OC)[n+]([O-])c(C(C)=O)c(C)[n+]2[O-] [Example 5, 2-acetyl-6,7-dimethoxy-3-methylquinoxaline 1,4-dioxide] | – | –
